# System: U87MG cells
# Experiment: Cellular assay, inhibition of 2-HG production in U87MG cells
# Assay type: cell-based
# Conditions: Homo sapiens, U-87 MG, 48 h
# Procedure, shortened: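 HT1080 or U87MG cells (U87MG kept with 500 ug/mL G418) seeded at 5000 cells/well and treated with compound at 0.2% final DMSO. Incubated 48 h at 37 °C. 2-HG inhibition determined by LC-MS. Viability read by CellTiter-Glo luminescence at 72 h post-dose.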
row,SMILES,IC50 [µM]
1,"N#Cc1ccnc(N2C(=O)CC[C@H]2C(=O)N(c2cc(F)cc(C3CC3)c2)[C@H](C(=O)NC2CCC(F)(F)CC2)c2ccccc2Cl)c1 [Compound 202, (S)—N—((S)-1-(2-Chlorophenyl)-2-((4,4-difluorocyclohexyl)amino)-2-oxoethyl)-1-(4-cyanopyridin-2-yl)-N-(3-cyclopropyl-5-fluorophenyl)-5-oxopyrrolidine-2-carboxamide]",< 0.1
2,"N#Cc1ccnc(N2C(=O)OCC[C@H]2C(=O)N(c2cc(F)cc(F)c2)[C@H](C(=O)NC2CC(F)(F)C2)c2ccccc2Cl)c1 [Compound 133, (S)—N—((S)-1-(2-Chlorophenyl)-2-((3,3-difluorocyclobutyl)amino)-2-oxoethyl)-3-(4-cyanopyridin-2-yl)-N-(3,5-difluorophenyl)-2-oxo-1,3-oxazinane-4-carboxamide]",< 0.1
3,"N#Cc1ccnc(N2C(=O)CC[C@H]2C(=O)N(c2ccc3[nH]ncc3c2)[C@H](C(=O)NC2CCC(F)(F)CC2)c2ccccc2Cl)c1 [Compound 203, (S)—N—((S)-1-(2-Chlorophenyl)-2-((4,4-difluorocyclohexyl)amino)-2-oxoethyl)-1-(4-cyanopyridin-2-yl)-N-(1H-indazol-5-yl)-5-oxopyrrolidine-2-carboxamide]",< 0.1
4,"N#Cc1ccnc(N2C(=O)OCC[C@H]2C(=O)N(c2cc(F)cc(F)c2)[C@H](C(=O)NC2CC(F)(F)C2)c2ccccc2Cl)n1 [Compound 154, (S)—N—((S)-1-(2-Chlorophenyl)-2-((3,3-difluorocyclobutyl)amino)-2-oxoethyl)-3-(4-cyanopyrimidin-2-yl)-N-(3,5-difluorophenyl)-2-oxo-1,3-oxazinane-4-carboxamide]",< 0.1
5,O=C(NC1CC(F)(F)C1)C(c1c(Cl)cccc1Cl)N(C(=O)[C@@H]1CCC(=O)N1c1ncccn1)c1cccc(F)c1 (stereo partly drawn) [Compound 51],0.1 to 0.5
6,"O=C(NC1CCC(F)(F)CC1)[C@H](c1ccccc1Cl)N(C(=O)[C@@H]1CCC(=O)N1c1cnccn1)c1cccc(F)c1 [Compound 58, (S)—N—((S)-1-(2-Chlorophenyl)-2-(4,4-difluorocyclohexylamino)-2-oxoethyl)-N-(3-fluorophenyl)-5-oxo-1-(pyrazin-2-yl)pyrrolidine-2-carboxamide]",< 0.1
7,O=C(NC1CC(F)(F)C1)C(c1ccccc1Cl)N(C(=O)[C@@H]1CCC(=O)N1c1ccccn1)c1cccc(F)c1 (stereo partly drawn) [Compound 5],0.1 to 0.5
8,"CS(=O)(=O)Nc1cccc(N(C(=O)[C@@H]2CCC(=O)N2c2cc(C#N)ccn2)[C@H](C(=O)NC2CC(F)(F)C2)c2ccccc2Cl)c1 [Compound 159, (S)—N—((S)-1-(2-Chlorophenyl)-2-(3,3-difluorocyclobutylamino)-2-oxoethyl)-1-(4-cyanopyridin-2-yl)-N-(3-(methylsulfonamido)phenyl)-5-oxopyrrolidine-2-carboxamide]",< 0.1
9,"N#Cc1ccnc(N2C(=O)[C@H](O)C[C@H]2C(=O)N(c2cccc(F)c2)[C@H](C(=O)NC2CCC(F)(F)CC2)c2ccccc2Cl)c1 [Compound 121, (2S,4R)—N—((S)-1-(2-Chlorophenyl)-2-((4,4-difluorocyclohexyl)amino)-2-oxoethyl)-1-(4-cyanopyridin-2-yl)-N-(3-fluorophenyl)-4-hydroxy-5-oxopyrrolidine-2-carboxamide]",< 0.1
10,"N#Cc1ccnc(N2C(=O)OCC[C@H]2C(=O)N(c2cncc(F)c2)[C@H](C(=O)NC2CCC(F)(F)CC2)c2ccccc2Cl)c1 [Compound 137, (S)—N—((S)-1-(2-Chlorophenyl)-2-((4,4-difluorocyclohexyl)amino)-2-oxoethyl)-3-(4-cyano-pyridin-2-yl)-N-(5-fluoropyridin-3-yl)-2-oxo-1,3-oxazinane-4-carboxamide]",< 0.1
11,"N#Cc1ccnc(N2C(=O)CC[C@H]2C(=O)N(c2cccc(CO)c2)[C@H](C(=O)NC2CC(F)(F)C2)c2ccccc2Cl)c1 [Compound 131, (S)—N—((S)-1-(2-Chlorophenyl)-2-(3,3-difluorocyclobutylamino)-2-oxoethyl)-1-(4-cyanopyridin-2-yl)-N-(3-(hydroxymethyl)phenyl)-5-oxopyrrolidine-2-carboxamide]",< 0.1
12,"N#Cc1ccnc(N2C(=O)[C@@H](O)C[C@H]2C(=O)N(c2cc(F)cc(F)c2)[C@H](C(=O)NC2CC(F)(F)C2)c2ccccc2Cl)c1 [Compound 171, (2S,4S)—N—((S)-1-(2-Chlorophenyl)-2-((3,3-difluorocyclobutyl)amino)-2-oxoethyl)-1-(4-cyano-pyridin-2-yl)-N-(3,5-difluorophenyl)-4-hydroxy-5-oxopyrrolidine-2-carboxamide]",< 0.1
13,O=C(NC1CC(F)(F)C1)[C@H](c1ccccc1Cl)N(C(=O)[C@@H]1CCC(=O)N1c1cc(Cl)ccn1)c1cccc(F)c1 [Compound 33],0.1 to 0.5
14,[2H]c1c([2H])c([2H])c([C@@H](C(=O)NC2CC(F)(F)C2)N(C(=O)[C@@H]2CCC(=O)N2c2cc(C#N)ccn2)c2cc(F)cc(F)c2)c(Cl)c1[2H] [Compound 163],< 0.1
15,O=C(NC1CC(F)(F)C1)[C@H](c1ccccc1Cl)N(C(=O)[C@@H]1CCC(=O)N1c1ccc(F)cn1)c1cccc(F)c1 [Compound 29],< 0.1
16,O=C(NC1CCC(F)(F)CC1)[C@H](c1ccccc1Cl)N(C(=O)[C@@H]1CCC(=O)N1c1cscn1)c1cccc(F)c1 [Compound 74],< 0.1
17,"N#Cc1ccnc(N2C(=O)OC[C@H]2C(=O)N(c2cccc(F)c2)[C@H](C(=O)NC2CC(F)(F)C2)c2ccccc2Cl)c1 [Compound 77, (S)—N—((S)-1-(2-Chlorophenyl)-2-(3,3-difluorocyclobutylamino)-2-oxoethyl)-3-(4-cyanopyridin-2-yl)-N-(3-fluorophenyl)-2-oxooxazolidine-4-carboxamide]",< 0.1
18,"O=C(NC1CC(F)(F)C1)[C@H](c1ccccc1Cl)N(C(=O)[C@@H]1COC(=O)N1c1cscn1)c1cccc(F)c1 [Compound 72, (S)—N—((S)-1-(2-Chlorophenyl)-2-((3,3-difluorocyclobutyl)amino)-2-oxoethyl)-N-(3-fluorophenyl)-2-oxo-3-(thiazol-4-yl)oxazolidine-4-carboxamide]",< 0.1
19,"CC(C)(O)c1cccc(N(C(=O)[C@@H]2CCC(=O)N2c2cc(C#N)ccn2)[C@H](C(=O)NC2CC(F)(F)C2)c2ccccc2Cl)c1 [Compound 179, (S)—N—((S)-1-(2C)-2-((3,3-difluorocyclobutyl)amino)-2-oxoethyl)-1-(4-cyanopyridin-2-yl)-N-(3-(2-hydroxypropan-2-yl)phenyl)-5-oxopyrrolidine-2-carboxamide]",< 0.1
20,"N#Cc1ccnc(N2C(=O)[C@@H](O)C[C@H]2C(=O)N(c2cc(F)cc(F)c2)[C@H](C(=O)NC2CCC(F)(F)CC2)c2ccccc2Cl)c1 [Compound 174, (2S,4S)—N—((S)-1-(2-Chlorophenyl)-2-((4,4-difluorocyclohexyl)amino)-2-oxoethyl)-1-(4-cyanopyridin-2-yl)-N-(3,5-difluorophenyl)-4-hydroxy-5-oxopyrrolidine-2-carboxamide]",< 0.1
21,"N#Cc1ccnc(N2C(=O)[C@H](O)C[C@H]2C(=O)N(c2cccc(F)c2)[C@@H](C(=O)NC2CCC(F)(F)CC2)c2ccccc2Cl)n1 [Compound 122, (2S,4R)—N—((R)-1-(2-Chlorophenyl)-2-((4,4-difluorocyclohexyl)amino)-2-oxoethyl)-1-(4-cyanopyrimidin-2-yl)-N-(3-fluorophenyl)-4-hydroxy-5-oxopyrrolidine-2-carboxamide]",0.1 to 0.5
